In US7534576B2, “Method and a device for the evaluation of biopolymer fitness” (Olympus Corporation, priority 1993, dated 2009):
{Bodipy-C6} = Bodipy fluorophore attached via a 5'-C6 linker

Assays:
[1] = system: viral single-strand DNA of bacteriophage M13 (M13mp18 (+) DNA); experiment: FCS of association of Bodipy-labeled primer with M13 single-strand DNA in solution; assay type: binding; conditions: 40° C.
Protocol: The oligonucleotide is labeled with Bodipy (Molecular Probes) at the 5′-C6 position. The course of the association reaction with time was measured according to the invention in solution at 40° C. The solution contained 50 nM oligonucleotide, 50 nM of M13mp18 (+) DNA in […] tris buffer, pH 7.5, and 0.18 M sodium chloride. […] Autocorrelation was determined after 0, 0.5, 1, 2, 4, 8, 16, 32, 64, 128, 192, and 256 minutes. The diffusion time of the free primer is 0.17 ms, and 2.9 ms when complex-bound. […] A reassocation rate of 0.07 min^−1 results.

[2] = system: NBD2 rat bladder cells; experiment: FCS of internalized EGF mobility with the measuring volume in the cytosol; assay type: cell-based; conditions: FIG. 27
Description: (§1) FIGS. 26 to 28 show the use of the FCS method according to the invention • (i) for the determination of the behavior of a fluorescence labeled ligand with respect to association with a receptor of the outer cell membrane, • (ii) for distinguishing between bound and free ligand, and/or • (iii) for measuring ligand mobility in the case of a passage into the cytosol.
The cells are surface-fixed on Petri dishes in PBS buffer (phosphate buffered saline). They had been grown beforehand in standard medium until a confluent monolayer had been reached. The medium contained EGF labeled with tetramethylrhodamine. For excitation, laser light of 500 nm wavelength of an argon laser (0.5 mW) had been chosen. […] Its concentration was 6 nM.

[3] = target: T1, EGF receptor (Rattus norvegicus, UniProt G3V6K6); experiment: FCS of tetramethylrhodamine-labeled EGF associating with cell-bound EGF receptor at the outer cell membrane; assay type: binding
T1 construct: endogenous in cells; host or cells: NBD2 rat bladder cells (tumor-derived)
Description: as §1
The cells are surface-fixed on Petri dishes in PBS buffer (phosphate buffered saline). […] For excitation, laser light of 500 nm wavelength of an argon laser (0.5 mW) had been chosen. […] Its concentration was 6 nM.

Substance | reassocation rate ([1]; 50 nM oligonucleotide, 50 nM M13mp18 (+) DNA, FIG. 29) | diffusion time of the free primer ([1]; 10 nM tris buffer pH 7.5, 0.18 M sodium chloride) | diffusion time of primer when complex-bound ([1]; bound to M13 DNA) | internalized EGF with the same mobility as the free factor ([2]; cytosol) | internalized EGF hindered in mobility ([2]; measuring volume within the cytosol) | EGF receptors per measuring volume still retaining the ligand bound with high affinity ([3]; after 30 minutes of washing, FIG. 26c) | τDfree of free EGF factor (printed as rotational diffusion coefficient) ([3]; free EGF, 6 nM, PBS, FIG. 26a) | diffusion time τDcomplex of receptor bound complex ([3]; receptor bound in cell membrane, FIG. 26b)
5′-TGACCGGCAGCAAAATGT-3′ (DNA, 5' {Bodipy-C6}, backbone not given here) [M13/pUC (−21) primer, DNA oligonucleotide primer complementary to bacteriophage M13 single-strand DNA] | 0.07 min⁻¹ | 0.17 ms | 2.9 ms |  |  |  |  | 
human epidermal growth factor (EGF) |  |  |  | 62% | 38% | about 0.5 | 0.145 ms | 14.54 ms
